This is an account of results in patent publication US4694018A, “Substituted 1,5-diphenyl-2-pyrrolepropionic acids and derivatives” (G. D. Serale & Co., priority 1985, dated 1987).

Molecules are shown by their SMILES.

Test [1] deals with SRS synthesis by Rat Basophilic Leukemia Cell (RBL-1) cells. The experiment in a line: Inhibition of slow reacting substance (SRS) biosynthesis in RBL-1 cells. The conditions noted are these: ionophore A23187, guinea pig ileum bioassay. It is filed as cell-based. How it is done:
(2) Inhibition of slow reacting substance (SRS) biosynthesis in cells.
SRS synthesis by Rat Basophilic Leukemia Cell (RBL-1) cells is induced by incubation of cells with ionophore A23187 alone and in combination with the test compound. The SRS released into the culture media is measured. The percent inhibition of SRS production is estimated by determining the doses of treated and control media needed in the tissue bath to produce equivalent contractions of segments of isolated guinea pig ileum.
Initial screening doses of test compounds are 1×10^-4 M and 1×10^-5 M.

Test [2] deals with T1, 5-lipoxygenase (Rattus norvegicus, UniProt P12527).
T1 construct: supernatant fraction of Rat Basophilic Leukemia Cell Homogenate (RBL-1) serves as a 5-lipoxygenase enzyme source; endogenous in cells; host or cells: RBL-1 (rat basophilic leukemia cells), 100,000×g supernatant of homogenate
T1 sequence (P12527 1-673): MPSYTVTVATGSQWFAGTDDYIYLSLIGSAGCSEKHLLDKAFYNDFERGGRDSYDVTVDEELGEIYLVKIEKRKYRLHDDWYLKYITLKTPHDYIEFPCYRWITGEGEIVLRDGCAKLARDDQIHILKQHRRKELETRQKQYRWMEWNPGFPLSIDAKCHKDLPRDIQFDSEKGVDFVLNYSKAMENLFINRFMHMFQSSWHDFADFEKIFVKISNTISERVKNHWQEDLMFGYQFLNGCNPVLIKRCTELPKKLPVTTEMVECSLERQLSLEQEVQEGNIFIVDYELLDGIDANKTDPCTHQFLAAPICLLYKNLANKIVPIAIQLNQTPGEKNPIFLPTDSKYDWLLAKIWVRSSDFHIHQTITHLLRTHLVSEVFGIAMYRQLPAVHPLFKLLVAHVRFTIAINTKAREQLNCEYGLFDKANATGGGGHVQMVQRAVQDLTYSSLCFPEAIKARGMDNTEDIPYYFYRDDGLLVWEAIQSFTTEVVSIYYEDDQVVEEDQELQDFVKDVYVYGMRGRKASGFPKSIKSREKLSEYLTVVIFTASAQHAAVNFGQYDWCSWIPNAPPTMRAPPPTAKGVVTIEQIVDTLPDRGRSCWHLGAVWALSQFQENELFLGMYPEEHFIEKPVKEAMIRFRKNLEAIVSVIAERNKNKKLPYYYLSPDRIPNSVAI
The experiment in a line: Inhibition of 5-lipoxygenase, in vitro (5-HETE synthesis by RBL-1 homogenate 100,000×g supernatant). It is filed as biochemical. The conditions noted are these: RBL-1 homogenate supernatant, 5-HETE from [1-14C]-arachidonic acid with Ca++; read-out: Rat Basophilic Leukemia Cell- Inhibition IC50. How it is done:
(1) Inhibition of 5-lipoxygenase, in vitro: anti-inflammatory, anti-allergyactivities.
The 100,000×g supernatant fraction of Rat Basophilic Leukemia Cell Homogenate (RBL-1) serves as a 5-lipoxygenase enzyme source. The enzyme is incubated with [1-^14 C]-arachidonic acid and Ca++ in the presence and absence of test compound. The product of 5-lipoxygenase, 5-hydroxyeicosatetraenoic acid (5-HETE), is separated by thin-layer chromatography and measured by radioactivity. A compound inhibiting 5-HETE synthesis by 30% or more is considered active at that concentration.

Test [3] concerns bronchoconstricting effects. The conditions noted are these: versus histamine; cited from earlier work.

As usually defined, the inhibition is how much of the control response was suppressed. As usually defined, the IC50 is the concentration needed to halve the response being measured. Regarding `O=C(O)CCc1ccc(-c2ccc(F)cc2)n1-c1cc(Cl)ccc1O` [Example 1, 1-(5-chloro-2-hydroxyphenyl)-5-(4-fluorophenyl)-1H-pyrrole-2-propanoic acid], the inhibition at 5 µM in test [1] is 82%. Besides, the half-maximal inhibitory concentration (IC50) in test [2] came to 0.83 µM.
In the case of `NC(=O)CCc1ccc(-c2ccc(F)cc2)n1-c1cc(Cl)ccc1O` [Example 4, 1-(5-chloro-2-hydroxyphenyl)-5-(4-fluorophenyl)-1H-pyrrole-2-propanamide], the half-maximal inhibitory concentration (IC50) in test [2] turned out to be 2.4 µM.
Still for that read-out and setting: under `O=C(O)CCc1ccc(-c2ccc(Cl)cc2)n1-c1cc(Cl)ccc1O` [Example 5, 1-(5-chloro-2-hydroxyphenyl)-5-(4-chlorophenyl)-1H-pyrrole-2-propanoic acid] stands 10 µM; under `COc1ccc(-c2ccc(CCC(=O)O)n2-c2cc(Cl)ccc2O)cc1` [Example 7, 1-(5-chloro-2-hydroxyphenyl)-5-(4-methoxyphenyl)-1H-pyrrole-2-propanoic acid], 35 µM.
Consider `CCCCC/C=C\C\C=C/C=C/C=C/[C@@H](SC[C@H](NC(=O)CC[C@H](N)C(=O)O)C(=O)NCC(=O)O)[C@@H](O)CCCC(=O)O` [LTC4], for which, in test [3], the “potency relative to histamine in causing long lasting bronchoconstricting effects” value is given as “at least 100 times”.
